In patent publication US10323032B2, “P2X7 Modulators” (Janssen Pharmaceutica NV, priority 2013, dated 2019):
Read-outs that look alike come from different tables or passages of the source.

Target: P2X7 receptor (Homo sapiens (Human), UniProt Q99572)
Assay: P2X7 antagonism in human PBMCs: IL-1β release (ELISA) after LPS + Bz-ATP
Format: cell-based
Conditions: LPS 30 ng/ml + 0.5 mM Bz-ATP; for remaining activity at 10 µM: read-out: PBMC 10 μM (% control)
Method: Human blood was collected using a blood donor program. […] Cells were incubated for an additional 1.5 hours. […] Data are analyzed and graphed on Graphpad Prism 5. […] The IC50 for each compound is then uploaded into 3DX.

[1] = P2X7, Table 3 (additional runs), 10 μM compound

P2X7 receptor, sequence (Q99572 whole entry): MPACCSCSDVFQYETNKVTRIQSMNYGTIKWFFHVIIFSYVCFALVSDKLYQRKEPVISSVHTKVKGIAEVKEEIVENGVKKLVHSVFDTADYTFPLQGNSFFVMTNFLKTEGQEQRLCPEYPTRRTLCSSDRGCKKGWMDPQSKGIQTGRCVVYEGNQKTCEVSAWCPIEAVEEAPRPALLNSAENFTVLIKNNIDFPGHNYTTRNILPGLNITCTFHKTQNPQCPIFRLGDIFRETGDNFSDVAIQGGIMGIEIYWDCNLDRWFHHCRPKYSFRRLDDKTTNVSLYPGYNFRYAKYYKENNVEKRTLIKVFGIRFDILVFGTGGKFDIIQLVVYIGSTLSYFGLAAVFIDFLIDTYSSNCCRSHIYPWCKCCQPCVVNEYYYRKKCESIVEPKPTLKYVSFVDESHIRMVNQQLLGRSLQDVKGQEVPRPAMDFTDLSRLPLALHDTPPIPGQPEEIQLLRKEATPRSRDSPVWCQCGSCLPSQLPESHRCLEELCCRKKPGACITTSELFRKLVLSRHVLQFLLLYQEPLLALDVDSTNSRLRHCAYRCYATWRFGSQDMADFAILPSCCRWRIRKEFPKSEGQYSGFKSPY

Cc1nc2c(c(-c3ccn[nH]3)n1)C[C@H](C)N(C(=O)c1ccc(Cl)cc1F)C2 (single isomer, unassigned) [Example 89, (S*)-(4-chloro-2-fluorophenyl)(2,6-dimethyl-4-(1H-pyrazol-5-yl)-5,6-dihydropyrido[3,4-d]pyrimidin-7(8H)-yl)methanone]
remaining activity at 10 µM (P2X7, Table 2, 10 μM compound): -16.4%

Cc1nc2c(c(-c3ccn[nH]3)n1)C[C@@H](C)N(C(=O)c1cccc(OC(F)(F)F)c1)C2 (single isomer, unassigned) [Example 141, (R*)-(2,6-dimethyl-4-(1H-pyrazol-5-yl)-5,6-dihydropyrido[3,4-d]pyrimidin-7(8H)-yl)(3-(trifluoromethoxy)phenyl)methanone]
remaining activity at 10 µM [1]: -0.6%

Cc1nc2c(c(-c3ccn[nH]3)n1)C[C@@H](C)N(C(=O)c1cccc(F)c1Cl)C2 (single isomer, unassigned) [Example 144, (R*)-(2-chloro-3-fluorophenyl)(2,6-dimethyl-4-(1H-pyrazol-5-yl)-5,6-dihydropyrido[3,4-d]pyrimidin-7(8H)-yl)methanone]
remaining activity at 10 µM [1]: -18.9%

Cc1nc2c(c(-c3ccn[nH]3)n1)CC(C)N(C(=O)c1cccc(OC(F)(F)F)c1)C2 (stereo not shown) [Example 140, (2,6-dimethyl-4-(1H-pyrazol-5-yl)-5,6-dihydropyrido[3,4-d]pyrimidin-7(8H)-yl)(3-(trifluoromethoxy)phenyl)methanone]
PBMC 10 μM (% control) (Table 3 (additional runs), 10 μM compound): 52.5 % control
